What follows are compounds tested against mouse TRPM3α2 (mTRPM3) ion channel (Mus musculus (Mouse), UniProt J9SQF3) (assay: TRPM3 ion channel driven Ca2+ uptake, Fluo-4 AM assay, mTRPM3alpha2 overexpressing flip-in HEK293 cells stimulated with pregnenolone sulfate). Settings: PS (50 μM) stimulated, cpds. 400-499.
Type: cell-based
How it was run: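 Read-out is Ca2+ influx via Fluo-4 AM fluorescence at 485/535 nm, taken right after seeding ~2000 cells/well onto compound with 50 μM PS. Inhibition computed from RFU between vehicle-stimulated and positive-control-inhibitor wells; cells were mTRPM3α2-overexpressing flip-in HEK293.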

Chain of mouse TRPM3α2 (mTRPM3) ion channel (J9SQF3 other isoform, or with tags, fused parts or gaps): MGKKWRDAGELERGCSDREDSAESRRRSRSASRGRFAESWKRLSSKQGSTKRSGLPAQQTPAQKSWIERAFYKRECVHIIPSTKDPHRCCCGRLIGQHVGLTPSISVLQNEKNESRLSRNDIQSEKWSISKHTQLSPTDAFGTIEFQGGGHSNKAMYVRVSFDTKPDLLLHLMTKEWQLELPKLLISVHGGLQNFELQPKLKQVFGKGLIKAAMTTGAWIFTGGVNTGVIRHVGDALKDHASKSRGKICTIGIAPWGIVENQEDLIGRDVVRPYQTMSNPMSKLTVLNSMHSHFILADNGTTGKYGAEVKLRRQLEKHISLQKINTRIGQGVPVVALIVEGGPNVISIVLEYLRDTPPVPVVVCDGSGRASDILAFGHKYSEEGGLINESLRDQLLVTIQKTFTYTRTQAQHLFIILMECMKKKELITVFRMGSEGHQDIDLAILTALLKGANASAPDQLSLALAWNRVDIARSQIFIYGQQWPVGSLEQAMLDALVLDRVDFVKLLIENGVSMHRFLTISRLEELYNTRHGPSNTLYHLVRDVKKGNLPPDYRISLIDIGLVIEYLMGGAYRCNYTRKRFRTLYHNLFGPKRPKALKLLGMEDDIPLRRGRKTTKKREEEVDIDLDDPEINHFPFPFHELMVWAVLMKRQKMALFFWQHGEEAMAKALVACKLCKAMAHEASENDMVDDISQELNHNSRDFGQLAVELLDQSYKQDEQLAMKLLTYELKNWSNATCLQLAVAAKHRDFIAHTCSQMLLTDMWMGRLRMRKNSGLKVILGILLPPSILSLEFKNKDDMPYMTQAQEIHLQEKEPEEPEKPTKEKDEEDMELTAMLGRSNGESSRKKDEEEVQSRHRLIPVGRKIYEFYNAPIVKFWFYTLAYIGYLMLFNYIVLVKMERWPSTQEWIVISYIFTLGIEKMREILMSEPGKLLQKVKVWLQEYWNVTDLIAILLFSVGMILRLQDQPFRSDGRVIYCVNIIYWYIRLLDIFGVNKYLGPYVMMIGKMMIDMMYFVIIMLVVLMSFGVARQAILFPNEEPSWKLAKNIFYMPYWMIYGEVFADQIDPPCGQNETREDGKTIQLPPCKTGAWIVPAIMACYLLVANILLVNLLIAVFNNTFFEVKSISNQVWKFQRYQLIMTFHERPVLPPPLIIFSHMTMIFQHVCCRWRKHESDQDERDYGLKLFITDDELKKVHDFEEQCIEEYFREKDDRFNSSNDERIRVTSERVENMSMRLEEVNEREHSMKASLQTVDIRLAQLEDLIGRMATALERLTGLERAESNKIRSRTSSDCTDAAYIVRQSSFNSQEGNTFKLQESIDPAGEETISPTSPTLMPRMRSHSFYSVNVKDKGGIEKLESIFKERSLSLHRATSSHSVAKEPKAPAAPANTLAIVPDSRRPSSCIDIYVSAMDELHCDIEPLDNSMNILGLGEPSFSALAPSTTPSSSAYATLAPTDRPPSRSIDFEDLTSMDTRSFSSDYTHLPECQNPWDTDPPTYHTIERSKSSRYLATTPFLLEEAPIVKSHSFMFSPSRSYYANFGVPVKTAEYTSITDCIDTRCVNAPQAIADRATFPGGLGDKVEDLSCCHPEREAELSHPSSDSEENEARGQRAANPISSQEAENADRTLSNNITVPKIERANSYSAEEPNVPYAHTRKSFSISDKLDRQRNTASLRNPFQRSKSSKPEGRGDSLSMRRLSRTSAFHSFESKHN

Row | IC50 [µM] | SMILES
1 | < 1 | Cc1oc2ccc(OCc3cccnc3O)cc2c1C(=O)N[C@@H](C)CO [compound 494, (S)-N-(1-hydroxypropan-2-yl)-5-((2-hydroxypyridin-3-yl)methoxy)-2-methylbenzofuran-3-carboxamide]
2 | < 1 | Cc1oc2ccc(OCc3cccnc3O)cc2c1C(=O)N[C@H](C)CO [compound 495, (R)-N-(1-hydroxypropan-2-yl)-5-((2-hydroxypyridin-3-yl)methoxy)-2-methylbenzofuran-3-carboxamide]
3 | < 1 | COc1ncccc1COc1ccc2oc(C)c(C(=O)N[C@@H](C)CO)c2c1 [compound 496, (S)-N-(1-hydroxypropan-2-yl)-5-((2-methoxypyridin-3-yl)methoxy)-2-methylbenzofuran-3-carboxamide]
4 | < 1 | COc1ncccc1COc1ccc2oc(C)c(C(=O)N[C@H](C)CO)c2c1 [compound 497, (R)-N-(1-hydroxypropan-2-yl)-5-((2-methoxypyridin-3-yl)methoxy)-2-methylbenzofuran-3-carboxamide]
5 | < 1 | Cc1ncsc1COc1ccc2oc(C)c(C(=O)NCC(F)F)c2c1 [compound 498, N-(2,2-difluoroethyl)-2-methyl-5-((4-methylthiazol-5-yl)methoxy)benzofuran-3-carboxamide]
6 | < 1 | Cc1ncc(COc2ccc3oc(C)c(C(=O)NCC(C)(F)F)c3c2)s1 [compound 499, N-(2,2-difluoropropyl)-2-methyl-5-((2-methylthiazol-5-yl)methoxy)benzofuran-3-carboxamide]

Further lines, the compound ahead of its results:

Row | SMILES | IC50 [µM]
7 | Cc1ncc(COc2ccc3oc(C)c(C(=O)NC4(C(N)=O)CCC4)c3c2)s1 [compound 471, N-(1-carbamoylcyclobutyl)-2-methyl-5-((2-methylthiazol-5-yl)methoxy)benzofuran-3-carboxamide] | < 1
8 | Cc1oc2ccc(OCc3ccccn3)cc2c1C(=O)NC1(C(N)=O)CCC1 [compound 472, N-(1-carbamoylcyclobutyl)-2-methyl-5-(pyridin-2-ylmethoxy)benzofuran-3-carboxamide] | < 1
9 | Cc1oc2ccc(OCc3cccnc3O)cc2c1C(=O)NC1(C(N)=O)CCC1 [compound 473, N-(1-carbamoylcyclobutyl)-5-((2-hydroxypyridin-3-yl)methoxy)-2-methylbenzofuran-3-carboxamide] | < 1
10 | COc1ncccc1COc1ccc2oc(C)c(C(=O)NC3(C(N)=O)CCC3)c2c1 [compound 474, N-(1-carbamoylcyclobutyl)-5-((2-methoxypyridin-3-yl)methoxy)-2-methylbenzofuran-3-carboxamide] | < 1
11 | Cc1oc2ccc(OCc3cccnc3C(F)(F)F)cc2c1C(=O)NC1(C(N)=O)CC1 [compound 475, N-(1-carbamoylcyclopropyl)-2-methyl-5-((2-(trifluoromethyl)pyridin-3-yl)methoxy)benzofuran-3-carboxamide] | < 1
12 | Cc1ncc(COc2ccc3oc(C)c(C(=O)NC4(C(N)=O)CC4)c3c2)s1 [compound 476, N-(1-carbamoylcyclopropyl)-2-methyl-5-((2-methylthiazol-5-yl)methoxy)benzofuran-3-carboxamide] | < 1
13 | Cc1ncsc1COc1ccc2oc(C)c(C(=O)NC3(C(N)=O)CC3)c2c1 [compound 477, N-(1-carbamoylcyclopropyl)-2-methyl-5-((4-methylthiazol-5-yl)methoxy)benzofuran-3-carboxamide] | < 1
14 | Cc1oc2ccc(OCc3ccccn3)cc2c1C(=O)NC1(C(N)=O)CC1 [compound 478, N-(1-carbamoylcyclopropyl)-2-methyl-5-(pyridin-2-ylmethoxy)benzofuran-3-carboxamide] | < 1
15 | COc1ncccc1COc1ccc2oc(C)c(C(=O)NC3(C(N)=O)CC3)c2c1 [compound 480, N-(1-carbamoylcyclopropyl)-5-((2-methoxypyridin-3-yl)methoxy)-2-methylbenzofuran-3-carboxamide] | < 1
16 | Cc1oc2ccc(OCc3nccn3C)cc2c1C(=O)NC(C)(C)CO [compound 481, N-(1-hydroxy-2-methylpropan-2-yl)-2-methyl-5-((1-methyl-1H-imidazol-2-yl)methoxy)benzofuran-3-carboxamide] | < 1
17 | Cc1oc2ccc(OCc3ccnn3C)cc2c1C(=O)NC(C)(C)CO [compound 482, N-(1-hydroxy-2-methylpropan-2-yl)-2-methyl-5-((1-methyl-1H-pyrazol-5-yl)methoxy)benzofuran-3-carboxamide] | < 1
18 | Cc1ncc(COc2ccc3oc(C)c(C(=O)NC(C)(C)CO)c3c2)s1 [compound 483, N-(1-hydroxy-2-methylpropan-2-yl)-2-methyl-5-((2-methylthiazol-5-yl)methoxy)benzofuran-3-carboxamide] | < 1
19 | Cc1oc2ccc(OCc3ccccn3)cc2c1C(=O)NC(C)(C)CO [compound 484, N-(1-hydroxy-2-methylpropan-2-yl)-2-methyl-5-(pyridin-2-ylmethoxy)benzofuran-3-carboxamide] | < 1
20 | Cc1oc2ccc(OCc3cccnc3O)cc2c1C(=O)NC(C)(C)CO [compound 485, N-(1-hydroxy-2-methylpropan-2-yl)-5-((2-hydroxypyridin-3-yl)methoxy)-2-methylbenzofuran-3-carboxamide] | < 1
21 | COc1ncccc1COc1ccc2oc(C)c(C(=O)NC(C)(C)CO)c2c1 [compound 486, N-(1-hydroxy-2-methylpropan-2-yl)-5-((2-methoxypyridin-3-yl)methoxy)-2-methylbenzofuran-3-carboxamide] | < 1
22 | Cc1oc2ccc(OCc3ccccn3)cc2c1C(=O)N[C@@H](C)CO [compound 492, (S)-N-(1-hydroxypropan-2-yl)-2-methyl-5-(pyridin-2-ylmethoxy)benzofuran-3-carboxamide] | < 1
23 | Cc1oc2ccc(OCc3ccccn3)cc2c1C(=O)N[C@H](C)CO [compound 493, (R)-N-(1-hydroxypropan-2-yl)-2-methyl-5-(pyridin-2-ylmethoxy)benzofuran-3-carboxamide] | < 1

Same assay, conditions: PS (50 μM) stimulated, cpds. 500-599

Row | IC50 [µM] | SMILES
24 | < 1 | Cc1ncsc1COc1ccc2oc(C)c(C(=O)NCC(C)(F)F)c2c1 [compound 500, N-(2,2-difluoropropyl)-2-methyl-5-((4-methylthiazol-5-yl)methoxy)benzofuran-3-carboxamide]
25 | < 1 | CC(=O)NCCNC(=O)c1c(C)oc2ccc(OCc3scnc3C)cc12 [compound 501, N-(2-acetamidoethyl)-2-methyl-5-((4-methylthiazol-5-yl)methoxy)benzofuran-3-carboxamide]
26 | < 1 | Cc1ncc(COc2ccc3oc(C)c(C(=O)NCC(C)(C)F)c3c2)s1 [compound 504, N-(2-fluoro-2-methylpropyl)-2-methyl-5-((2-methylthiazol-5-yl)methoxy)benzofuran-3-carboxamide]
27 | < 1 | Cc1ncsc1COc1ccc2oc(C)c(C(=O)NCC(C)(C)F)c2c1 [compound 505, N-(2-fluoro-2-methylpropyl)-2-methyl-5-((4-methylthiazol-5-yl)methoxy)benzofuran-3-carboxamide]
28 | < 1 | Cc1ncsc1COc1ccc2oc(C)c(C(=O)NCC(C)(C)O)c2c1 [compound 506, N-(2-hydroxy-2-methylpropyl)-2-methyl-5-((4-methylthiazol-5-yl)methoxy)benzofuran-3-carboxamide]
29 | < 1 | Cc1ncsc1COc1ccc2oc(C)c(C(=O)NC(=O)C3(N(C)C)COC3)c2c1 [compound 508, N-(3-(dimethylamino)oxetane-3-carbonyl)-2-methyl-5-((4-methylthiazol-5-yl)methoxy)benzofuran-3-carboxamide]
30 | < 1 | Cc1ncsc1COc1ccc2oc(C)c(C(=O)NC3(C(=O)N(C)C)COC3)c2c1 [compound 509, N-(3-(dimethylcarbamoyl)oxetan-3-yl)-2-methyl-5-((4-methylthiazol-5-yl)methoxy)benzofuran-3-carboxamide]
31 | < 1 | Cc1oc2ccc(OCc3ccnn3C)cc2c1C(=O)NC1(CO)COC1 [compound 524, N-(3-(hydroxymethyl)oxetan-3-yl)-2-methyl-5-((1-methyl-1H-pyrazol-5-yl)methoxy)benzofuran-3-carboxamide]
32 | < 1 | Cc1ncc(COc2ccc3oc(C)c(C(=O)NC4(CO)COC4)c3c2)s1 [compound 525, N-(3-(hydroxymethyl)oxetan-3-yl)-2-methyl-5-((2-methylthiazol-5-yl)methoxy)benzofuran-3-carboxamide]
33 | < 1 | Cc1oc2ccc(OCc3ccccn3)cc2c1C(=O)NC1(CO)COC1 [compound 526, N-(3-(hydroxymethyl)oxetan-3-yl)-2-methyl-5-(pyridin-2-ylmethoxy)benzofuran-3-carboxamide]
34 | < 1 | Cc1oc2ccc(OCc3nccs3)cc2c1C(=O)NC1(CO)COC1 [compound 527, N-(3-(hydroxymethyl)oxetan-3-yl)-2-methyl-5-(thiazol-2-ylmethoxy)benzofuran-3-carboxamide]
35 | < 1 | COc1ncccc1COc1ccc2oc(C)c(C(=O)NC3(CO)COC3)c2c1 [compound 528, N-(3-(hydroxymethyl)oxetan-3-yl)-5-((2-methoxypyridin-3-yl)methoxy)-2-methylbenzofuran-3-carboxamide]
36 | < 1 | Cc1ncsc1COc1ccc2oc(C)c(C(=O)N(C)C3(CO)COC3)c2c1 [compound 529, N-(3-(hydroxymethyl)oxetan-3-yl)-N.2-dimethyl-5-((4-methylthiazol-5-yl)methoxy)benzofuran-3-carboxamide]
37 | < 1 | Cc1ncsc1COc1ccc2oc(C)c(C(=O)NC3(CO)CC(F)(F)C3)c2c1 [compound 537, N-(3,3-difluoro-1-(hydroxymethyl)cyclobutyl)-2-methyl-5-((4-methylthiazol-5-yl)methoxy)benzofuran-3-carboxamide]
38 | < 1 | Cc1ncsc1COc1ccc2oc(C)c(C(=O)NCCC(F)F)c2c1 [compound 574, N-(3,3-difluoropropyl)-2-methyl-5-((4-methylthiazol-5-yl)methoxy)benzofuran-3-carboxamide]
